Our source for the T/C values is PubChem BioAssay AID330 (DTP/NCI, 2004).

Where “and” joins values, the source holds several entries; their conditions need not be identical. Equal entries are not always repeated. Inconclusive results and toxic doses are left out.

This experiment relates to P388 leukemia ip, CD2F1 mice, survival T/C. In words: NCI In Vivo Anticancer Drug Screen. Data for tumor model P388 Leukemia (intraperitoneal) in CD2F1 (CDF1) mice. Conditions: endpoint: median survival time, higher = longer survival. The gist of the method:
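Mice carrying the transplanted tumor received test compound or vehicle. Survival was recorded in each group, and the value is the treated-group measurement divided by that of the vehicle-treated control group.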

Where [1] appears, read: dose: 50.0 mg/kg/injection, schedule: Q01DX009 (ip), vehicle: saline with Tween-80.
[2] abbreviates: dose: 50.0 mg/kg/injection, schedule: Q01DX009 (ip), vehicle: saline.
[3] abbreviates: dose: 100.0 mg/kg/injection, schedule: Q01DX009 (ip), vehicle: saline.
The mark [4] stands for this setting: dose: 200.0 mg/kg/injection, schedule: Q01DX009 (ip), vehicle: saline.
Setting [5] is: dose: 50.0 mg/kg/injection, schedule: Q01DX005 (ip), vehicle: Klucel (hydroxypropylcellulose) (HPC).
[6] abbreviates: dose: 100.0 mg/kg/injection, schedule: Q01DX005 (ip), vehicle: Klucel (hydroxypropylcellulose) (HPC).
Where [7] appears, read: dose: 200.0 mg/kg/injection, schedule: Q01DX005 (ip), vehicle: Klucel (hydroxypropylcellulose) (HPC).
Setting [8] is: dose: 25.0 mg/kg/injection, schedule: Q01DX009 (ip), vehicle: saline with Tween-80.

Take `CC(=O)Oc1ccc(/C=N/NC(N)=S)nc1`: the T/C is, setting by setting: (dose: 4.0 mg/kg/injection, schedule: Q01DX009 (ip), vehicle: saline with Tween-80) 154 % of control; (dose: 14.6 mg/kg/injection, schedule: Q01DX009 (ip), vehicle: saline with Tween-80) 163 % of control; (dose: 22.0 mg/kg/injection, schedule: Q01DX009 (ip), vehicle: saline with Tween-80) 177 % of control; (dose: 33.0 mg/kg/injection, schedule: Q01DX009 (ip), vehicle: saline with Tween-80) 181 % of control; (dose: 37.5 mg/kg/injection, schedule: Q01DX009 (ip), vehicle: saline with Tween-80) 170 % of control; under setting [1], 204 % of control. Also, the T/C (dose: 75.0 mg/kg/injection, schedule: Q01DX009 (ip), vehicle: saline with Tween-80) is 173 % of control and the T/C (dose: 150.0 mg/kg/injection, schedule: Q01DX009 (ip), vehicle: saline with Tween-80) is 88 % of control.
In the case of `COc1cccc2c1C(=O)c1c(O)c3c(c(O)c1C2=O)CC(O)(C(C)=O)CC3OC1CC(NCC2(O)OC(C(=O)NCCCN(C)C)C(O)C2O)C(O)C(C)O1` (stereo not given), the T/C is, setting by setting: (dose: 2.5 mg/kg/injection, schedule: Q04DX003 (ip), vehicle: water) 101 % of control; (dose: 5.0 mg/kg/injection, schedule: Q04DX003 (ip), vehicle: water) 109 % of control; (dose: 10.0 mg/kg/injection, schedule: Q04DX003 (ip), vehicle: water) 108 % of control; (dose: 20.0 mg/kg/injection, schedule: Q04DX003 (ip), vehicle: water) 109 % of control; (dose: 40.0 mg/kg/injection, schedule: Q04DX003 (ip), vehicle: water) 109 % of control.
For the compound `C=C(CC)C(=O)OCC`, the T/C under setting [2] is 95 % of control, the T/C under setting [3] is 102 % of control and the T/C under setting [4] is 104 % of control.
For `CN(C)CCCOC(=O)Cc1cccc2c(=O)cc(-c3ccccc3)oc12`, in that order: 101 % of control, 99 % of control and 118 % of control.
For the compound `Nc1ccc2c(c1N)C(=O)c1ccccc1C2=O`, the T/C reads like this: under setting [5], 101 % of control; under setting [6], 100 % of control; under setting [7], 100 % of control.
Take `CNC(=O)c1n[nH]c(=S)[nH]c1=O`: the T/C reads like this: under setting [5], 111 % of control; (dose: 50.0 mg/kg/injection, schedule: Q01DX005 (ip), vehicle: saline) 100 % of control; under setting [6], 104 % of control; (dose: 100.0 mg/kg/injection, schedule: Q01DX005 (ip), vehicle: saline) 101 % of control; under setting [7], 101 % of control; (dose: 200.0 mg/kg/injection, schedule: Q01DX005 (ip), vehicle: saline) 101 % of control.
For `O=C(O)CC12CC3CC(CC(O)(C3)C1)C2`, the T/C is 100 % of control (dose: 50.0 mg/kg/injection, schedule: Q01DX009 (ip), vehicle: Klucel (hydroxypropylcellulose) (HPC)); 109 % of control (dose: 100.0 mg/kg/injection, schedule: Q01DX009 (ip), vehicle: Klucel (hydroxypropylcellulose) (HPC)); 90 % of control (dose: 200.0 mg/kg/injection, schedule: Q01DX009 (ip), vehicle: Klucel (hydroxypropylcellulose) (HPC)).
Take `O=C(Cc1cccc2c(=O)cc(-c3ccccc3)oc12)OCCN1CCOCC1`: the T/C by setting is: under setting [2], 99 % of control; under setting [3], 100 % of control.
`CSC(/C=C1\C=Cc2ccccc2N1C)=N\S(=O)(=O)c1ccc(N)cc1`: the T/C is 107 % of control (dose: 25.0 mg/kg/injection, schedule: Q04DX002 (ip), vehicle: saline with Tween-80); 100 % of control (dose: 50.0 mg/kg/injection, schedule: Q04DX002 (ip), vehicle: saline with Tween-80); 102 % of control (dose: 100.0 mg/kg/injection, schedule: Q04DX002 (ip), vehicle: saline with Tween-80).
Take `CC(CN(CC(=O)O)CC(=O)O)N(CC(=O)O)CC(=O)O.[Cl][Pd][Cl]` (stereo not given): the T/C (dose: 60.0 mg/kg/injection, schedule: Q01DX005 (ip), vehicle: saline) is 94 % of control and the T/C (dose: 120.0 mg/kg/injection, schedule: Q01DX005 (ip), vehicle: saline) is 91 % of control.
For the compound `O=C(O)Cc1cc(Br)c(O)c(Br)c1`, the T/C is 107 % of control (dose: 12.5 mg/kg/injection, schedule: Q01DX009 (ip), vehicle: distilled water + Tween-80); 107 % of control (dose: 25.0 mg/kg/injection, schedule: Q01DX009 (ip), vehicle: distilled water + Tween-80); 98 % of control (dose: 50.0 mg/kg/injection, schedule: Q01DX009 (ip), vehicle: distilled water + Tween-80); 98 % of control (dose: 100.0 mg/kg/injection, schedule: Q01DX009 (ip), vehicle: distilled water + Tween-80); 100 % of control (dose: 200.0 mg/kg/injection, schedule: Q01DX009 (ip), vehicle: distilled water + Tween-80).
Consider `CC(C)N(CCn1cnc2c(N)ncnc21)C(C)C`, for which the T/C is, setting by setting: under setting [5], 100 % of control; under setting [6], 97 % of control.
As for `COc1ccc(CN2CCc3cc(OC)c(O)cc3C2)cc1O`, the T/C (dose: 100.0 mg/kg/injection, schedule: Q01DX001 (ip), vehicle: saline with Tween-80) was 94 % of control and the T/C (dose: 200.0 mg/kg/injection, schedule: Q01DX001 (ip), vehicle: saline with Tween-80) was 98 % of control.
On to `Cc1cccc(Nc2c(N)nc(N)nc2N)c1`, for which the T/C under setting [8] was 100 % of control; the T/C (dose: 25.0 mg/kg/injection, schedule: Q04DX003 (ip), vehicle: saline with Tween-80) was 100 % of control; the T/C under setting [1] was 109 % of control; the T/C (dose: 50.0 mg/kg/injection, schedule: Q04DX003 (ip), vehicle: saline with Tween-80) is 100 % of control; the T/C (dose: 100.0 mg/kg/injection, schedule: Q04DX003 (ip), vehicle: saline with Tween-80) is 104 % of control and 118 % of control.
Regarding `N#CCCN1C(=O)C2(CCC#N)CCCCC2(O)N=C1c1ccccc1` (stereo not given), the T/C reads like this: (dose: 60.0 mg/kg/injection, schedule: Q01DX005 (ip), vehicle: Klucel (hydroxypropylcellulose) (HPC)) 92 % of control; (dose: 120.0 mg/kg/injection, schedule: Q01DX005 (ip), vehicle: Klucel (hydroxypropylcellulose) (HPC)) 94 % of control; (dose: 240.0 mg/kg/injection, schedule: Q01DX005 (ip), vehicle: Klucel (hydroxypropylcellulose) (HPC)) 92 % of control.
As to `CN(N=Nc1ccc(C#N)cc1)C(C)(C)C`, the T/C (dose: 50.0 mg/kg/injection, schedule: Q01DX005 (ip), vehicle: saline with Tween-80) is 100 % of control and the T/C (dose: 100.0 mg/kg/injection, schedule: Q01DX005 (ip), vehicle: saline with Tween-80) is 100 % of control.
Regarding `COc1c2occc2c(S(N)(=O)=O)c2ccc(=O)oc12`, the T/C is 106 % of control under setting [8]; 103 % of control under setting [1]; 106 % of control (dose: 100.0 mg/kg/injection, schedule: Q01DX009 (ip), vehicle: saline with Tween-80).
